Tests used:
[1] = tested on: α-KG-dependent histone dioxygenases (H3K4 methylation); experiment: Histone H3K4 methylation in treated cells; assay type: cell-based
[2] = tested on: TET2^MT cells; experiment: In vitro toxicity to TET2^MT cells; assay type: cell-based

## COC(=O)CNC(=O)C(=O)OC [DMOG, methyl 2-[(2-methoxy-2-oxoethyl)amino]-2-oxoacetate]
[1]
  Change in H3K4 methylation: significantly affected

## O=C(O)CCC(O)C(=O)O (centres unmarked) [2HG, 2-hydroxyglutarate]
[2]
  LD50 for TET2^MT: in millimolar ranges

Reference: publication PMC7935131 (Blood cancer discovery, 2020)
